Measurements taken from PubChem BioAssay (NCI).
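Results reflect a 48-hour exposure of cells in 96-well plates to compound at five concentrations. Here, GI50 denotes the concentration required for 50% inhibition of growth. TGI denotes the concentration required for complete inhibition of growth.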

How the values were obtained:
Test in all cases: inhibition of tumour cell growth, NCI panel, 48 h
MOLT-4 leukemia = system: MOLT-4 leukemia
RXF 393 renal = system: RXF 393 renal
HOP-62 NSCLC = system: HOP-62 NSCLC
NCI-H226 lung = system: NCI-H226 lung
TK-10 renal = system: TK-10 renal
SF-295 CNS = system: SF-295 CNS
UACC-62 melanoma = system: UACC-62 melanoma
786-0 renal = system: 786-0 renal
SK-MEL-5 melanoma = system: SK-MEL-5 melanoma
ACHN renal = system: ACHN renal

Row | Compound | TGI (MOLT-4 leukemia) | TGI (RXF 393 renal) | TGI (HOP-62 NSCLC) | TGI (NCI-H226 lung) | TGI (TK-10 renal) | TGI (SF-295 CNS) | TGI (UACC-62 melanoma) | TGI (786-0 renal) | TGI (SK-MEL-5 melanoma) | TGI (ACHN renal) | GI50 (MOLT-4 leukemia) | GI50 (RXF 393 renal) | GI50 (HOP-62 NSCLC) | GI50 (TK-10 renal) | GI50 (ACHN renal) | GI50 (SF-295 CNS) | GI50 (UACC-62 melanoma) | GI50 (786-0 renal) | GI50 (SK-MEL-5 melanoma) | GI50 (NCI-H226 lung)
1 | COP1(=O)CC2C(Cl)(Cl)C2(C)C1 (stereo unspecified) | > 100 µM | > 100 µM | > 100 µM | > 100 µM | > 100 µM | > 100 µM | > 100 µM | > 100 µM | > 100 µM | – | – | – | – | – | – | – | – | – | – | –
2 | CCOC(=O)C(C)(C)Oc1ccc2c(=O)cc(-c3ccc(Cl)cc3)oc2c1 | > 100 µM | > 100 µM | > 100 µM | > 100 µM | > 100 µM | > 100 µM | > 100 µM | > 100 µM | > 100 µM | > 100 µM | – | – | – | – | – | – | – | – | – | –
3 | CC(=O)Oc1cc(C)ccc1[C@]1(C)CC[C@H](C)/C1=C\Br | 22.8 µM | 15.9 µM | 22.2 µM | – | 12.5 µM | 13.2 µM | 19.7 µM | 14.3 µM | 11.5 µM | 20.1 µM | 5.22 µM | 3.86 µM | 9.22 µM | 3.6 µM | 5.7 µM | 3.96 µM | 5.98 µM | 4.09 µM | 3.32 µM | –
4 | CC1(C)C(=O)N(c2ccccc2)C(=O)N1c1nc2ccccc2[nH]1 | > 100 µM | > 100 µM | > 100 µM | > 100 µM | > 100 µM | > 100 µM | > 100 µM | > 100 µM | > 100 µM | > 100 µM | – | – | – | – | – | – | – | – | – | –
5 | O=C1C=C(c2c(O)ccc3ccccc23)c2ccccc2C1=O | 4.41 µM | 5.06 µM | 33.5 µM | 27.9 µM | 25.8 µM | 12.4 µM | 5.48 µM | 4.89 µM | 7.42 µM | 11.7 µM | – | – | – | – | – | – | – | – | – | –
6 | CN(C)CCNc1nc2ccccc2c2c1c1c(n2Cc2ccccc2)-c2ccccc2C1=O | 18.5 µM | 37.6 µM | 37.2 µM | 50.3 µM | – | 24.9 µM | 34.3 µM | 38.3 µM | 30.9 µM | 20.7 µM | 4.77 µM | 11.5 µM | 18.1 µM | – | 6.43 µM | 9.33 µM | 18.3 µM | 19.2 µM | 15.8 µM | 20.2 µM
7 | O=C1c2cc(Br)ccc2-c2c1c1ccc([N+](=O)[O-])cc1c(=O)n2CCCCl | – | 14.2 µM | 8.28 µM | 3.59 µM | > 57.2 µM | 3.56 µM | 1.08 µM | 2.26 µM | 1.02 µM | 6.79 µM | < 0.01 µM | 0.487 µM | 0.837 µM | 13.8 µM | < 0.0151 µM | < 0.0479 µM | 0.0264 µM | 0.659 µM | 0.24 µM | 0.1 µM
8 | CCCCC#COP(=O)(OCC)OCC | > 100 µM | – | > 100 µM | > 100 µM | > 100 µM | > 100 µM | > 100 µM | > 100 µM | > 100 µM | > 100 µM | – | – | – | – | – | – | – | – | – | –
9 | CC1CC(c2ccccc2)=Nc2ccccc2S1(=O)=O (stereo unspecified) | 33.3 µM | 28.7 µM | 39.8 µM | – | 47.7 µM | 39.4 µM | 55.7 µM | 30.9 µM | 32.5 µM | 30.1 µM | – | – | – | – | – | – | – | – | – | –
10 | Cc1nn(C(=O)c2ccccc2O)c2c1C(c1ccccc1)SC(N)=N2 (stereo unspecified) | > 10 µM | > 10 µM | > 10 µM | 7.38 µM | > 10 µM | > 10 µM | 9.73 µM | > 10 µM | > 10 µM | > 10 µM | – | – | – | – | – | – | – | – | – | –
11 | C=CCCCCCCCCCCCC1CCC(CC)N1 (stereo unspecified) | 17 µM | 16.5 µM | 28.5 µM | 49.1 µM | 32.1 µM | 27.8 µM | 29.4 µM | 21.8 µM | 25.5 µM | 31.1 µM | – | – | – | – | – | – | – | – | – | –
12 | COc1ccc(/C=C/c2cc(OC)c(OC)c(OC)c2)cc1NC(=O)/C=C/c1ccc(F)cc1 | > 100 µM | 4.88 µM | > 100 µM | 89 µM | > 100 µM | 64.4 µM | > 100 µM | > 100 µM | > 100 µM | > 100 µM | 4.48 µM | 1.41 µM | 3.84 µM | 4.73 µM | 6.3 µM | 1.57 µM | 3.32 µM | 4.29 µM | 2.72 µM | 3.82 µM
13 | CC1(C)C=CC[C@]2(C)[C@H]3CC[C@@H]4[C@H]5[C@H](C(=O)/C=C/c6cccnc6)CC[C@]5(CO)CC[C@@]4(C)[C@]3(C)CC[C@@H]12 | 2.94 µM | 2.37 µM | 3.11 µM | 3.08 µM | 3.26 µM | 2.42 µM | 2.55 µM | 3.15 µM | 2.79 µM | 2.35 µM | 0.539 µM | 1.12 µM | 1.54 µM | 1.81 µM | 1.14 µM | 1.15 µM | 1.23 µM | 1.64 µM | 1.46 µM | 1.33 µM
14 | COc1ccc(NC(=O)C2C(=O)N(c3ccc(OC)cc3)C(=O)/C2=N/O)cc1 (stereo unspecified) | > 100 µM | 30.5 µM | 43.3 µM | 55.7 µM | 52.3 µM | 52.5 µM | 45.8 µM | 41.9 µM | – | 43.2 µM | – | – | – | – | – | – | – | – | – | –
15 | COc1cc2nc(-c3ccc(C(F)(F)F)cc3)cc(OCCCN3CCOCC3)c2cc1OC | 14.9 µM | 3.65 µM | 13.1 µM | 4.87 µM | 30.6 µM | 1.68 µM | 3.9 µM | 4.47 µM | 0.997 µM | 18.2 µM | 2.51 µM | 0.706 µM | 1.67 µM | 13.9 µM | 2.01 µM | 0.349 µM | 0.628 µM | 1.76 µM | 0.288 µM | 0.406 µM
16 | CC(=O)O/N=C/c1ncccc1CO | > 100 µM | > 100 µM | > 100 µM | > 100 µM | > 100 µM | > 100 µM | > 100 µM | > 100 µM | > 100 µM | > 100 µM | – | – | – | – | – | – | – | – | – | –
17 | CCN(CC)CCC1CC/C(=C\c2ccc(OC)cc2)C1=O (stereo unspecified) | > 100 µM | > 100 µM | > 100 µM | > 100 µM | > 100 µM | > 100 µM | 34.7 µM | > 100 µM | 44 µM | > 100 µM | – | – | – | – | – | – | – | – | – | –
